The test system of data set [1] is HCT116 cells. Nature of the data set: Lactate dehydrogenase (LDH) release assay. The format is cell-based. The essentials: (§1)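 LDH release, fluorometric membrane-integrity read-out; HCT116 with stable p53-responsive β-lactamase reporter; 8000 cells/well; 0.5% DMSO final; geometric mean, n≥3 biological replicates.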
Data set [2] is described as follows: Lactate dehydrogenase (LDH) release assay. It counts as cell-based. The method in brief: as §1
A short description of data set [3]: Solubility assay (kinetic solubility, PBS pH 7). The format is physicochemical. To be noted: for solubility kinetic: pH 7, aqueous buffer, kinetic from dmso stock, read-out: Solubility. The essentials:
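Next, measure peak areas of sample and standard. Finally, multiply their ratio by the standard concentration to obtain solubility (µM).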

A short description of data set [4]: physchem.
The nature of data set [5]: Experimental LogD (partition coefficient). Conditions: for logD: not stated, Partition Coeff LogD.
The nature of data set [6]: physchem. The source holds these as a separate data set.
A short description of data set [7]: Nanoclick permeability assay. The essentials:
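Azido-peptide permeability was read as loss of NanoBRET signal (donor 450 nm, acceptor 610 nm) after adding NanoBret618-azide at 10 μM final.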

Values after ≈ are worked out from the molar mass of the structure shown. Where two headings read alike, the source gives them in different places. Positions of bridges follow the written chain, without caps; N, C: chain ends. Non-standard residues stand in square brackets, D forms with d. Residues, ends and D or L forms follow the SMILES beside them. Lys(N3) = [N-]=[N+]=NCCCC[C@H](N)C(=O)O; R8 = C=CCCCCCC[C@@](C)(N)C(=O)O; Cba = N[C@@H](CC1CCC1)C(=O)O; S5 = C=CCCC[C@](C)(N)C(=O)O; βAla = NCCC(=O)O

The EC50 is the concentration at which the effect is half-maximal. A word on the logD: it is the decadic logarithm of the distribution of all forms, ionised or not, between an organic phase and buffer at a given pH. A low value points to a more hydrophilic compound.

In the case of `CC(=O)N[C@H](C)C(=O)N[C@H](C)C(=O)N[C@H](C)C(=O)N[C@H](C)C(=O)N[C@@H](CC(C)C)C(=O)N[C@H](C(=O)N[C@@H](Cc1ccccc1)C(=O)N[C@]1(C)CCCCCCC=CCCC[C@@](C)(C(=O)N[C@@H](CO)C(=O)N[C@@H](C)C(=O)N[C@@H](C)C(N)=O)NC(=O)[C@H](CC2CCC2)NC(=O)[C@H](CCC(N)=O)NC(=O)[C@H](C)NC(=O)[C@H](Cc2c[nH]c3ccccc23)NC(=O)[C@H](Cc2ccc(O)cc2)NC(=O)[C@H](CCC(=O)O)NC1=O)[C@@H](C)O` [MP-365], the “LDH: Cytotoxicity assay: % Effect” value in data set [1] is on record as -0.1776%. The same compound yielded an EC50 in data set [2] (LDH: Cytotoxicity assay: EC50) greater than 50.6 µM. Moreover, the solubility kinetic in data set [3] (pH 7, PBS) was 76.3 µM (≈ 155 µg/mL). The EPSA in data set [4] worked out at 210 A^2. Moreover, the logD in data set [5] stood at 2.6.
For `CC(=O)N[C@@H](CC(C)C)C(=O)N[C@H](C(=O)N[C@@H](Cc1ccccc1)C(=O)N[C@]1(C)CCCCCCC=CCCC[C@@](C)(C(=O)N[C@@H](CO)C(=O)N[C@@H](C)C(=O)N[C@@H](C)C(N)=O)NC(=O)[C@H](CC2CCC2)NC(=O)[C@H](CC(C)C)NC(=O)[C@H](CCC(N)=O)NC(=O)[C@H](Cc2c[nH]c3ccccc23)NC(=O)[C@H](C)NC(=O)[C@H](CCC(=O)O)NC1=O)[C@@H](C)O` [MP-363] (Ac-LTF[R8]EAWQL[Cba][S5]SAA-NH2; staple 4-11), in data set [1], the “LDH: Cytotoxicity assay: % Effect” value came to 4.97%. In data set [2] (LDH: Cytotoxicity assay: EC50), this compound gave a half-maximal effective concentration (EC50) greater than 50.6 µM. In data set [4], this compound had an EPSA of 195 A^2. The compound further came in with a log distribution coefficient (logD) in data set [5] of 2.85.
Regarding `CC(=O)N[C@@H](CC(C)C)C(=O)N[C@H](C(=O)N[C@@H](Cc1ccccc1)C(=O)NC(C)(C)C(=O)N[C@@H](CCC(=O)O)C(=O)N[C@@H](Cc1ccc(O)cc1)C(=O)N[C@@H](Cc1c[nH]c2ccccc12)C(=O)N[C@H](CCC(N)=O)C(=O)N[C@@H](CC(C)C)C(=O)N[C@@H](CC1CCC1)C(=O)NC(C)(C)C(=O)N[C@@H](CO)C(=O)N[C@@H](C)C(=O)N[C@@H](C)C(N)=O)[C@@H](C)O` [MP-786], the “LDH: Cytotoxicity assay: % Effect” value in data set [1] stood at 7.785%. In data set [2] (LDH: Cytotoxicity assay: EC50), this compound displayed an EC50 greater than 50.6 µM. For the same compound, the solubility kinetic in data set [3] (pH 7, PBS) came out at 170 µM (≈ 283 µg/mL). In data set [4], this compound came in with an EPSA of 187 A^2. The logD in data set [5] was determined as 1.99.
Take `CC(=O)N[C@@H](CC(C)C)C(=O)N[C@H](C(=O)N[C@@H](C)C(=O)N[C@]1(C)CCCCCCC=CCCC[C@@](C)(C(=O)N[C@@H](CO)C(=O)N[C@@H](C)C(=O)N[C@H](C)C(N)=O)NC(=O)[C@H](CC2CCC2)NC(=O)[C@H](CC(C)C)NC(=O)[C@H](CCC(N)=O)NC(=O)[C@H](Cc2c[nH]c3ccccc23)NC(=O)[C@H](Cc2ccc(O)cc2)NC(=O)[C@H](CCC(=O)O)NC1=O)[C@@H](C)O` [MP-671] (Ac-LTA[R8]EYWQL[Cba][S5]SA[dA]-NH2; staple 4-11): the “LDH: Cytotoxicity assay: % Effect” value in data set [1] is on record as 3.06%. In addition, in data set [2] (LDH: Cytotoxicity assay: EC50), the concentration giving a half-maximal response (EC50) was greater than 50.6 µM. In data set [3] (pH 7, PBS), the solubility kinetic was determined as 74.3 µM (≈ 127 µg/mL). For the same compound, the EPSA in data set [4] amounted to 199 A^2. In data set [5], this compound registered a logD of 2.27.
For `CC(=O)N[C@@H](C)C(=O)N[C@@H](C)C(=O)N[C@@H](C)C(=O)N[C@@H](C)C(=O)N[C@@H](CC(C)C)C(=O)N[C@H](C(=O)N[C@@H](Cc1ccccc1)C(=O)N[C@]1(C)CCCCCCC=CCCC[C@@](C)(C(=O)N[C@@H](CO)C(=O)N[C@@H](C)C(=O)N[C@@H](C)C(N)=O)NC(=O)[C@H](CC2CCC2)NC(=O)[C@H](CCC(N)=O)NC(=O)[C@H](C)NC(=O)[C@H](Cc2c[nH]c3ccccc23)NC(=O)[C@H](Cc2ccc(O)cc2)NC(=O)[C@H](CCC(=O)O)NC1=O)[C@@H](C)O` [MP-360], in that order: 2.492%, greater than 50.6 µM, 24.7 µM (≈ 50.1 µg/mL), 219 A^2 and 3.24.
With `CC(=O)N[C@H](CC(C)C)C(=O)N[C@H](C(=O)N[C@@H](Cc1ccccc1)C(=O)N[C@]1(C)CCCCCCC=CCCC[C@@](C)(C(=O)N[C@@H](CO)C(=O)N[C@H](C)C(=O)N[C@@H](C)C(N)=O)NC(=O)[C@H](CC2CCC2)NC(=O)[C@H](CC(C)C)NC(=O)[C@H](CCC(N)=O)NC(=O)[C@H](Cc2c[nH]c3ccccc23)NC(=O)[C@H](Cc2ccc(O)cc2)NC(=O)[C@H](CCC(=O)O)NC1=O)[C@@H](C)O` [MP-7201], the “LDH: Cytotoxicity assay: % Effect” value in data set [1] came to 4.51%. This compound displayed an EC50 in data set [2] (LDH: Cytotoxicity assay: EC50) greater than 50 µM. Besides, the solubility kinetic in data set [3] (pH 7, PBS) was 19 µM (≈ 34 µg/mL). For the same compound, in data set [4], the EPSA worked out at 191 A^2. Further, in data set [5], the logD came out at 2.8.
In data set [2] (LDH: Cytotoxicity assay: EC50), `CC(=O)N[C@@H](CC(C)C)C(=O)N[C@H](C(=O)N[C@@H](Cc1ccccc1)C(=O)N[C@]1(C)CCCCCCC=CCCC[C@@](C)(C(=O)N[C@@H](CO)C(=O)N[C@@H](C)C(=O)N[C@@H](C)C(N)=O)NC(=O)[C@H](CC2CCC2)NC(=O)[C@H](CCC(N)=O)NC(=O)[C@H](CCC(N)=O)NC(=O)[C@H](Cc2c[nH]c3ccccc23)NC(=O)[C@H](Cc2ccc(O)cc2)NC(=O)[C@H](CCC(=O)O)NC1=O)[C@@H](C)O` [MP-864] (Ac-LTF[R8]EYWQQ[Cba][S5]SAA-NH2; staple 4-11) had a concentration giving a half-maximal response (EC50) greater than 50.6 µM. Moreover, the solubility kinetic in data set [3] (pH 7, PBS) worked out at 86.5 µM (≈ 156 µg/mL). The compound also yielded an EPSA in data set [4] of 212 A^2. The compound further came in with a logD in data set [5] of 2.59.
The compound `CC(=O)N[C@@H](CC(C)C)C(=O)N[C@H](C(=O)N[C@@H](Cc1ccccc1)C(=O)N[C@]1(C)CCCCCCC=CCCC[C@@](C)(C(=O)N[C@@H](CO)C(=O)N[C@@H](C)C(=O)N[C@@H](C)C(N)=O)NC(=O)[C@H](CC2CCC2)NC(=O)[C@H](C)NC(=O)[C@H](C)NC(=O)[C@H](Cc2c[nH]c3ccccc23)NC(=O)[C@H](Cc2ccc(O)cc2)NC(=O)[C@H](CCC(=O)O)NC1=O)[C@@H](C)O` [MP-865] (Ac-LTF[R8]EYWAA[Cba][S5]SAA-NH2; staple 4-11) returned an EC50 in data set [2] (LDH: Cytotoxicity assay: EC50) greater than 50.6 µM. In addition, the solubility kinetic in data set [3] (pH 7, PBS) was 84.5 µM (≈ 143 µg/mL). This compound also returned an EPSA in data set [4] of 211 A^2. In data set [5], this compound had a logD of 2.94.
Consider `CC(=O)N[C@@H](CCCCN=[N+]=[N-])C(=O)NCCC(=O)N[C@@H](CC(C)C)C(=O)N[C@H](C(=O)N[C@@H](Cc1ccccc1)C(=O)N[C@]1(C)CCCCCCC=CCCC[C@@](C)(C(=O)N[C@@H](CO)C(=O)N[C@@H](C)C(=O)N[C@@H](C)C(N)=O)NC(=O)[C@H](CC2CCC2)NC(=O)[C@H](CCC(N)=O)NC(=O)[C@H](C)NC(=O)[C@H](Cc2c[nH]c3ccccc23)NC(=O)[C@H](Cc2ccc(O)cc2)NC(=O)[C@H](C)NC1=O)[C@@H](C)O` [MP-954, AZIDE-ATSP-7041 (E5A)] (Ac-[Lys(N3)][βAla]LTF[R8]AYWAQ[Cba][S5]SAA-NH2; staple 6-13), for which the entries for the “LDH: Cytotoxicity assay % Effect” value in data set [1] (0% FBS 4Hr), in data set [1] (0% FBS 16Hr) and in data set [1] (10% FBS 4Hr) were 9.323%, -0.76% and 15.23%, respectively. Moreover, the EC50 in data set [2] (0% FBS 4Hr, read-out: LDH: Cytotoxicity assay EC50) is greater than 50 µM; in data set [2] (10% FBS 4Hr, read-out: LDH: Cytotoxicity assay EC50), greater than 50 µM. The EPSA in data set [6] amounted to 205 A^2. Further, the Solubility entry was “P.B” in data set [3] and “Poorly Behaved” in data set [3] (pH 7, PBS). The cell entry EC50 in data set [7] came out at 0.217 µM. In addition, the entries for the “Partition Coeff LogD” value in data set [5] and in data set [5] (experimental) were “Poorly Behaved” and “P.B”, respectively.

These data come from PMC10786919, “Design-rules for stapled peptides with in vivo activity and their application to Mdm2/X antagonists” (Nature Communications, 2024).
